From PubChem BioAssay (NCI)
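Five concentrations, 48 hours, 96-well plates. GI50: concentration for 50% inhibition of growth. TGI: total growth inhibition.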

Columns and labels:
Assay in all cases: NCI-60 cell line screen, 48 h
HCC-2998 colon = test system: HCC-2998 colon
HL-60(TB) leukemia = test system: HL-60(TB) leukemia
SNB-19 CNS = test system: SNB-19 CNS
HOP-92 NSCLC = test system: HOP-92 NSCLC
KM12 colon = test system: KM12 colon
EKVX NSCLC = test system: EKVX NSCLC
PC-3 prostate = test system: PC-3 prostate
SW-620 colon = test system: SW-620 colon
SNB-75 CNS = test system: SNB-75 CNS
ACHN renal = test system: ACHN renal

Structure (SMILES)	TGI (HCC-2998 colon) [µM]	TGI (HL-60(TB) leukemia) [µM]	TGI (SNB-19 CNS) [µM]	TGI (HOP-92 NSCLC) [µM]	TGI (KM12 colon) [µM]	TGI (EKVX NSCLC) [µM]	TGI (PC-3 prostate) [µM]	TGI (SW-620 colon) [µM]	TGI (SNB-75 CNS) [µM]	TGI (ACHN renal) [µM]	GI50 (HCC-2998 colon) [µM]	GI50 (HL-60(TB) leukemia) [µM]	GI50 (SNB-19 CNS) [µM]	GI50 (HOP-92 NSCLC) [µM]	GI50 (KM12 colon) [µM]	GI50 (EKVX NSCLC) [µM]	GI50 (PC-3 prostate) [µM]	GI50 (SW-620 colon) [µM]	GI50 (SNB-75 CNS) [µM]	GI50 (ACHN renal) [µM]
COc1cc2c(cc1OC)[C@H](C)N1CCc3cc(OC)c(OC)cc3[C@@H]1C2	> 100	> 100	> 100	> 100	> 100	> 100	> 100	> 100	> 100	> 100										
Cc1c(Cl)cccc1C(=O)Nc1nc2c(s1)CN(C(=O)c1ccc(C(F)(F)F)cc1)CC2	> 50	1.25	> 50	36.4	> 50	> 50	> 50	> 50	> 50	> 40.9	0.2	0.108	0.171	0.877	0.113	0.285	0.117	0.0656	0.0814	0.267
COc1ccc2c(c1)c(CC(=O)[Se]C)c(C)n2C(=O)c1ccc(Cl)cc1	> 1	> 0.779	> 0.752	> 0.533	> 1	> 0.459	> 0.897	> 0.854	> 0.238	> 1	> 0.673	> 0.398	> 0.421	> 0.336	> 0.577	> 0.229	> 0.337	> 0.468		> 0.56
Cc1cc2c(C(C)C)c(O)c(O)cc2c(O)c1-c1c(C)cc2c(C(C)C)c(O)c(O)cc2c1O	30	34.1	35.6	17.4	27.2	68.6	27.7	40.5	60	21.9	16.4	9.07	14.9	3.13	11.6	20.8	12.4	16.7	24.5	8.66
CC1=C(C(=O)Nc2ccc3n[nH]c(C)c3c2)C(c2ccc(C(F)(F)F)cc2)CC(=O)N1 (stereo not given)	> 25	> 25	> 25	1.46	> 25	> 25	> 25	> 25	> 18.8	> 25	> 25	> 25	> 25	0.0117	14	5.89	> 25	11	1.24	> 25
CC1=C(c2cccc(O)c2)[C@H](c2ccc(OCCN3CC(CF)C3)cc2)Oc2ccc(O)cc21	15.4	22.2	22.1	13.8	21.7	21.7	20.9	20.9	22.3	18.6	3.84	4.39	10.1	2.52	6.44	9.61	5.8	7.28	10.5	6.2
O=C1/C(=C/c2ccccc2)CN(C(=O)CCN2CCOCC2)C/C1=C\c1ccccc1	3.68	6.51	14.5	22.2	2.99	26.7	8.51	1.55	20	11.3										
COC1CC(O[C@H]2CC[C@@]3(C)[C@H](CC[C@@H]4[C@@H]3CC[C@]3(C)[C@@H](C5=CC(=O)OC5)[C@@H](OC(C)=O)C[C@]43O)C2)OC(C)C1O (stereo not given in full)	< 0.0187	< 0.0331	< 0.01	< 0.01	< 0.0106	< 0.01	< 0.01	< 0.01	< 0.01	< 0.01	< 0.01	< 0.01	< 0.01	< 0.01	< 0.01	< 0.01	< 0.01	< 0.01	< 0.01	< 0.01
Cc1cc([N+](=O)[O-])c(NS(=O)(=O)c2cccc(C(=O)O)c2)cc1-c1cccnc1	> 100	> 100	> 100	> 100	> 100	> 100	> 100	> 100	> 100	> 100	> 100	> 100	> 100	> 100	35.1	> 100	> 100	> 100	> 100	> 100
COc1cc2nc(N3CCCC3)nc(NCc3ccccc3)c2cc1OC	4.25	4.33	17.7	14	17	19.2	15.2	6.24	5.38	3.89	2.13	2.07	5.05	2.36	4.52	6.04	3.08	2.28	1.69	1.89
CC(C)CCCC(C)[C@H]1CCC2[C@@H]3CCC4Cc5nc6c(nc5C[C@]4(C)C3CC[C@@]21C)CC1CC[C@@H]2C(CC[C@@]3(C)C2CC[C@@H]3C(C)CCCC(C)C)[C@@]1(C)C6 (stereo not given in full)		> 100	> 100	> 100	> 100	> 100	> 100	> 100	> 100	> 100										
N#C/C(=C\c1ccsc1)c1nc2ccccc2o1	> 100	> 100	> 100	42.8	> 100	> 100	> 100	> 100	65.5	> 100	> 100	> 100	> 100	14.4	> 100	67.5	> 100	> 100	24.5	45.2
CC(C)(C)C(=O)OCC1C(=O)OCC1C(=O)N1Cc2cc3ccccc3nc2C1 (stereo not given)	29.3	3.13	38.6	3.69	29.8	22.4	23	3.17	19.9	7.54										
Cn1ncnc1[C@H]1c2n[nH]c(=O)c3cc(F)cc(c23)N[C@@H]1c1ccc(F)cc1	> 100	> 100	> 100	> 100	> 100		> 100	> 100	> 100	> 100	> 100	10.3	22.8		> 100		> 100	25.9	15.1	54.3
